Measured values taken from PMC12388125, “Design, Synthesis, and Pharmacological Activity of the N-(4-(1H-1,2,4-Triazol-1-yl)phenyl)-substituted-amide Derivatives” (Molecules, 2025).
Entries after “also recorded” stand apart in the source; their conditions may differ. Where two headings read alike, the source gives them in different places.

Columns and labels:
[1] = tested on: pentylenetetrazole-induced clonic seizures; test: animal or person; type: in vivo, Kunming mice; details: for ED50 (scPTZ) / PI (TD50/ED50) scPTZ / ED50: 0.5 h; for ED50 (scPTZ): value (95% CI); for PI (TD50/ED50) scPTZ: Kunming, mouse, in vivo; for ED50 / minimal effective dose: Mus musculus, sc; for ED50: as given in the text, read-out: ED50 (scPTZ); for minimal effective dose: doses 30, 100, 300 mg/kg, read-out: scPTZ, dose at which at least one of three animals was protected
Procedure: (§1) Pharmacological tests were performed using two experimental animal models, MES and scPTZ, which were divided into three dosage groups of 30, 100, and 300 mg/kg, and the anticonvulsant activity of the target compounds 6a–m and 9a–g, after 0.5 and 4 h of administration, respectively, were tested. Carbamazepine, which is effective in the MES model, was chosen as a positive control, and ethosuximide, which is effective in the scPTZ model, was chosen as a positive control. […]
The test compound wa s
Absence of clonic spasms indicated a […]

[2] = tested on: mice; details: Kunming, mouse, in vivo, 0.5 h
Procedure: (§2) The neurotoxicity of the target compounds was tested using the ROT experimental model, which was divided into two dose groups, 100 and 300 mg/kg, and tested after 0.5 and 4 h of administration, respectively.
(§3) The neurotoxicity of the target compounds was determined using the ROT experimental model.
(§4) The neurotoxicity of the compounds wa s measured in mice using the rotarod test. Mice
(§5) we r e trained to stay on an accelerating rotarod (diameter, 3.2 cm) rotating at 10 rpm. Trained
(§6) animals we r e injected with the test compounds (i.p.) and neurotoxicity wa s measured as the
(§7) inability of the animal to maintain equilibrium on the rod for at least 1 min in each of the

[3] = tested on: MES-induced seizures; test: animal or person; type: in vivo, Kunming mice; details: for ED50 (MES) / PI (TD50/ED50) MES / ED50: 0.5 h; for ED50 (MES): value (95% CI); for PI (TD50/ED50) MES: Kunming, mouse, in vivo; for ED50 / minimal effective dose: Mus musculus; for ED50: as given in the text; for minimal effective dose: ip, doses 30, 100, 300 mg/kg, read-out: MES, dose at which at least one of three animals was protected
Procedure: as §1
Protection against the spread of
extension component of the seizure. […]

[4] = tested on: MES-induced seizures; parameters: method as in doi:10.1016/j.molstruc.2025.141611; details: cited from earlier work; for MES, dose at which at least one of three animals was protected: lead compound of previous study
[5] = tested on: mice; parameters: method as in doi:10.1016/j.molstruc.2025.141611; details: cited from earlier work; for NT (neurotoxicity, ROT): lead compound of previous study
[6] = tested on: pentylenetetrazole-induced clonic seizures; parameters: method as in doi:10.1016/j.molstruc.2025.141611; details: cited from earlier work; for scPTZ, dose at which at least one of three animals was protected: lead compound of previous study
[7] = tested on: mice; test: Elevated plus maze (EPM) test; type: in vivo; details: n = 6
Text: The EPM experiment is a method for evaluating whether experimental animals have an anxiety response. The principle is that, in the face of new things, mice will generate curiosity to explore (open arm), while they have a nature of darkness (closed arm), the conflict behavior between the two occurs between exploration and avoidance, resulting in anxiety. Anxious behavior can be evaluated by comparing the retention time of mice in the open and closed arms.
Flumazenil is a selective BZ antagonist with a chemical structure similar to that of BZs, which acts on central benzodiazepine (BZ) receptors and thus blocks the receptors without producing BZ-like effects.
The apparatus consisted of a black acrylic maze with two opposite open arms (50×10 cm) and two opposite closed arms (50×10×40 cm) disposed like a plus sign with a central square of 10 cm2. Entire maze wa s elevated 50 cm above the floor. The test consisted in placing the rat in the central square of the maze facing one closed arm and allowing it to explore during 5 min. This procedure wa s performed in a quiet and dimly illuminated room. The scores analysed we r e the time spent in open and closed arms, and the number of entries to both […]
widely used as an anxiety index (time spent in open arms relative to the time spent in open […]
and closed arms). […]

[8] = Rotarod (ROT) neurotoxicity test; details: Kunming, mouse, in vivo, intraperitoneal
Procedure: as §2, §3, §4, §5, §6, §7

[9] = tested on: mice; test: Rotarod (ROT) neurotoxicity test; details: for TD50 (ROT): 0.5 h, value (95% CI); for NT (neurotoxicity, ROT), dose at which at least one of three animals showed neurotoxicity: doses 100, 300 mg/kg
Procedure: as §2, §3, §4, §5, §6, §7

[10] = tested on: GABA content in brain tissue; test: GABA estimation in brain tissue; type: in vivo, Wistar rats; details: 30 mg/kg, n = 5
Procedure: The data obtained from the experiments were analyzed and processed and plotted using GraphPad Prism 8 software.
We i g h about 0.05 g of tissue sample in a homogenizer, add 450 µL of extracting solution
to homogenize, homogenize, transfer to an EP tube, mark the liquid level scale, and heat for 2
hours at 95°C. After heating, centrifuge at 8000 × g for 10 min and remove the supernatant for
① Standard tube: Ta k e 30 µL of different concentrations of standards and add them to
the corresponding 1.5 mL EP tube. Measurement tube: Ta k e 30 µL of sample supernatant and
add it to 1.5 mL EP tube. ② Add 50 µL of buffer solution and 40 µL of Chromogenic Agent A
to each tube in step, mix we l l , and let stand at room temperature for 5 min. ③ Add 60 µL of
Chromogenic Agent B to each tube in step, mix we l l , and heat at 95°C for 10 min, then cool at
ice bath. ④ Add 200 µL of supplementary solution to each tube in step and mix well. ⑤ Ta k e
200 µL into the corresponding we l l s of the enzyme plate, and measure the OD va l u e of each

Row | Structure (SMILES) | ED50 (scPTZ) [1] | PI (TD50/ED50) scPTZ [1] | ED50 [1] | ED50 (MES) [3] | PI (TD50/ED50) MES [3] | ED50 [3] | minimal effective dose ([1]; 0.5 h after administration) | minimal effective dose ([1]; 4 h after administration) | NT (neurotoxicity, ROT), dose at which at least one of three animals showed neurotoxicity ([9]; 0.5 h after administration) | NT (neurotoxicity, ROT), dose at which at least one of three animals showed neurotoxicity ([9]; 4 h after administration) | minimal effective dose ([3]; 0.5 h after administration) | minimal effective dose ([3]; 4 h after administration) | other results
1 | CCC1(C)CC(=O)NC1=O (stereo not shown) [Ethosuximide, reference compound] | 94.4 mg/kg | 3.5 | 94.4 mg/kg |  |  |  |  |  |  |  |  |  | TD50 (ROT) [2]: 333.7 (362.8–306.9) mg
2 | NC(=O)N1c2ccccc2C=Cc2ccccc21 [Carbamazepine, reference compound] |  |  |  | 11.4 mg/kg | 6.1 | 11.4 mg/kg |  |  |  |  |  |  | TD50 (ROT) [2]: 69.3 (75.4–63.8) mg
3 | CCCCCOc1cc(OCCCCC)n2ncnc2n1 [I] |  |  |  |  |  |  |  |  |  |  |  |  | MES, dose at which at least one of three animals was protected ([4]; 0.5 h): 30 mg/kg; MES, dose at which at least one of three animals was protected ([4]; 4 h): 30 mg/kg; ED50 (MES) ([4]; lead compound): 11.3 (12.3–10.4) mg; PI (TD50/ED50) MES ([4]; lead compound): 16.8; NT (neurotoxicity, ROT) ([5]; 0.5 h): >150 mg/kg; NT (neurotoxicity, ROT) ([5]; 4 h): >150 mg/kg; TD50 (ROT) ([5]; lead compound): 190.7 (207.3–175.4) mg; scPTZ, dose at which at least one of three animals was protected ([6]; 0.5 h): 30 mg/kg; scPTZ, dose at which at least one of three animals was protected ([6]; 4 h): 30 mg/kg; ED50 (scPTZ) ([6]; lead compound): 9.5 (10.4–8.8) mg; PI (TD50/ED50) scPTZ ([6]; lead compound): 20.0
4 | O=C(Nc1ccc(-n2cncn2)cc1)c1cccc(F)c1 [Compound 6f, N-(4-(1H-1,2,4-triazol-1-yl)phenyl)-3-fluorobenzamide] | 19.7 mg/kg | 24.2 | 19.7 mg/kg | 13.1 mg/kg | 36.3 | 13.1 mg/kg | 30 mg/kg | 30 mg/kg | >300 mg/kg | >300 mg/kg | 30 mg/kg | 30 mg/kg | EPM % of time in open arms vs control ([7]; 3 mg/kg): showed a significant difference; also recorded: showed significant differences; EPM % of time in open arms vs control ([7]; 6f 3 mg/kg + FMZ 5 mg/kg): also showed significant differences; EPM time in open arm vs 6f group ([7]; 6f 3 mg/kg + FMZ 5 mg/kg): significantly shortened the time of experimental animals in open arm; TD50 at 0.5 h [8]: 477 mg/kg; TD50 (ROT) [9]: 476.7 (518.3–438.5) mg; GABA content in brain tissue vs control ([10]; 2 h after administration): do not show significant differences; GABA content in brain tissue vs control ([10]; 7 d continuous administration): showed significant differences
5 | CN1C(=O)CN=C(c2ccccc2)c2cc(Cl)ccc21 [Diazepam, reference compound] |  |  |  |  |  |  |  |  |  |  |  |  | EPM % of time in open arms vs control ([7]; 1 mg/kg): showed a significant difference
6 | CCOC(=O)c1ncn2c1CN(C)C(=O)c1cc(F)ccc1-2 [Flumazenil, reference compound] |  |  |  |  |  |  |  |  |  |  |  |  | EPM % of time in open arms vs control ([7]; 5 mg/kg, listed as FMZ): did not show significant differences; also recorded: did not show a significant difference
7 | Cc1cccc(C(=O)Nc2ccc(-n3cncn3)cc2)c1 [Compound 6l, N-(4-(1H-1,2,4-triazol-1-yl)phenyl)-3-methylbenzamide] | 19 mg/kg | 22.1 | 19 mg/kg | 9.1 mg/kg | 45.9 | 9.1 mg/kg | 30 mg/kg | 30 mg/kg | >300 mg/kg | >300 mg/kg | 30 mg/kg | 30 mg/kg | EPM % of time in open arms vs control ([7]; 0.5 mg/kg): showed a significant difference; EPM % of time in open arms vs control ([7]; 6l 0.5 mg/kg + FMZ 5 mg/kg): did not show a significant difference; EPM time in open arm vs 6l group ([7]; 6l 0.5 mg/kg + FMZ 5 mg/kg): significantly shortened the time of the experimental animals in the open arm; TD50 (ROT) [9]: 419.5 (456.1–385.9) mg; GABA content in brain tissue vs control ([10]; 2 h after administration): do not show significant differences; GABA content in brain tissue vs control ([10]; 7 d continuous administration): showed significant differences
8 | Cc1ccccc1C(=O)Nc1ccc(-n2cncn2)cc1 [Compound 6k, N-(4-(1H-1,2,4-triazol-1-yl)phenyl)-2-methylbenzamide] |  |  |  |  |  |  | 100 mg/kg | 300 mg/kg | >300 mg/kg | >300 mg/kg | 30 mg/kg | 100 mg/kg | 
9 | CCC(=O)Nc1ccc(-n2cncn2)cc1 [Compound 9a, N-(4-(1H-1,2,4-triazol-1-yl)phenyl)propionamide] |  |  |  |  |  |  | 100 mg/kg | 100 mg/kg | >300 mg/kg | >300 mg/kg | 100 mg/kg | 300 mg/kg | 
